Source: US20020058795A1, “HYDROPHOBIC GLYCOSYLAMINE DERIVATIVES, COMPOSITIONS, AND METHODS FOR USE” (priority 1997, published 2002)

Experiments:
[1] = tested on: established cell lines and primary neuronal cultures; details: cited from earlier work
SCCVII tumors = experiment: CAT reporter gene expression after injection of lipid/DNA complexes into tumors; assay type: in vivo; details: complex with CAT DNA plasmid injected into SCCVII tumors; 10% lactose
Experimental: A variety of HGD/DNA complexes were injected into SCCVII tumors. […] Other lipophilic molecules included DOTMA complexed with cholesterol, DOTIM complexed with DOPE and cholesterol, MMCE complexed with DOPE and cholesterol and DiP-PE, EPMC complexed with DOPE and cholesterol. All complexes comprised 10% lactose.

cells [2] = experiment: Transfection efficiency: IL-2 expressed by cells given HGD/IL-2 plasmid compositions; assay type: cell-based; details: for IL-2 expression by cells: 0.2 μg IL-2 plasmid, cholesterol or DOPE co-lipid, 48 hours
Experimental: HGDs of the invention formed DNA/HGD complexes that efficiently delivered DNA plasmids to cells. The transfection efficiency was measured after compositions comprising HGDs of the invention, 0.2 μg of DNA plasmids comprising a gene encoding IL-2, and either cholesterol or DOPE as a co-lipid were incubated with cells for 48 hours. The amount of IL-2 expressed by cells administered the compositions was quantified using by an assay disclosed in U.S. application Ser. No. 60/039,709, Raiston et al., “IL-2 Gene Expression and Delivery Systems and Uses,” filed Feb. 10, 1997, incorportated herein by reference in its entirety including any figures, tables, and drawings.

cells [3] = experiment: Cell toxicity by total cellular protein synthesis (Bio-Rad Protein Assay) or cell proliferation (XTT); assay type: cell-based
Text: Compositions comprising HGDs of the invention, plasmid DNA, and a co-lipid such as DOPE or cholesterol were not appreciably toxic to cells. Toxicity measurements were based upon total cellular protein synthesis (Bio-Rad Protein Assay) or cell proliferation (Cell-Proliferation Kit-XTT, Boehringer Mannheim).

tumors = experiment: In vivo anti-tumor efficacy, intratumoral IL-2 plasmid compositions; parameters: species or system mice; details: for growth of tumors in mice: compositions with IL-2 plasmid DNA and DOPE, given directly into the tumor; for size of tumors, average: with DNA and DOPE; for size of tumors, average / reduction of growth rates of tumors: 1:2 -/+ charge ratio; for reduction of growth rates of tumors: with IL-2 plasmid DNA and DOPE
Text: Compositions comprising HGDs of the invention, plasmid DNA comprising an IL-2 gene, and DOPE efficaciously retarded the growth of tumors in mice. These model-tumor studies involved implanting a tumor into mice, administering a composition of the invention directly into the tumor, and monitoring the growth of tumors in the mice. A protocol for such a procedure is taught in U.S. application Ser. No. 60/039,709, Raiston et al., “IL-2 Gene Expression and Delivery Systems and Uses,” filed Feb. 10, 1997, incorportated herein by reference in its entirety including any figures, tables, and drawings.

CCCCCCCCCCCCCCCCCCN(CCCCCCCCCCCCCCCCCC)C(=O)CNC(=O)C(CCCNCCCN)NCCCN (stereo not drawn) [DOGS]
transfection efficiency relative to calcium phosphate [1]: more efficiently than calcium phosphate by at least two orders of magnitude

CCCCCCCCCCCCCCCC(=O)OCC(COP(=O)(O)OCCNC(=O)C(CCCNCCCN)NCCCN)OC(=O)CCCCCCCCCCCCCCC (stereo not drawn) [DPPES]
transfection efficiency relative to calcium phosphate [1]: more efficiently than calcium phosphate by at least two orders of magnitude

CCCCCCCC/C=C\CCCCCCCCO[C@@H]1OC(CO)[C@@H](O)C(O)C1N (stereo partly drawn) [MOG, 1-mono-oleyl-glucosamine]
expression of the CAT reporter gene (SCCVII tumors): highest expression of the CAT reporter gene of any of the lipophilic molecule/DNA complexes tested
IL-2 expression compared with DOTMA liposomes (cells [2]; 1:3 charge ratio): as large as the amount of IL-2 expressed by cells administered liposomes comprising an efficient delivery lipid, DOTMA
IL-2 expression by cells (cells [2]; -/+ charge ratio 1:0.5): not significantly expressed
IL-2 expression by cells (cells [2]; -/+ charge ratio 1:3): significantly expressed
expression and recovery of total protein, of normal protein levels (cells [3]; MOG composition contains DOPE, compared with LipofectAMINE composition): more than 75%
health of cells compared with LipofectAMINE liposome compositions (cells [3]): healthier
growth of tumors in mice (tumors): significantly reduced the growth of tumors
size of tumors, average (tumors; nine days, untreated 600): less than 400 cubic millimeters
reduction of growth rates of tumors (tumors; after nine days): more than 30%

CCCCCCCCCCCCCCCCO[C@@H]1OC(CO)[C@@H](O)C(O)C1N (stereo partly drawn) [MPG, 1-mono-palmityl-glucosamine]
health of cells compared with LipofectAMINE liposome compositions (cells [3]): healthier
growth of tumors in mice (tumors): significantly reduced the growth of tumors
size of tumors, average (tumors; thirteen days, untreated approximately 1600): less than 1200 cubic millimeters
reduction of growth rates of tumors (tumors; after thirteen days): more than 25%
